The values that follow are results of earlier work, collected in article PMC11437099 (Nature Communications, 2024).

Like-named read-outs stand apart in the source and are kept apart here.

For data set [1], the system named is patients with type 2 diabetes.
In data set [2] the test system is patients with type 2 diabetes. The source holds these as a separate data set.

Take “dulaglutide: approved GLP-1 analog (Trulicity)”: in data set [1] (0.75 and 1.5 mg at 26 weeks), the “HbA1c change from baseline” value is reported as −1.25 to −1.46% and the “Participants achieving HbA1c <7.0%” value was 63–72%. Moreover, the “Body weight change from baseline” value in data set [2] (0.75 and 1.5 mg doses at 26 weeks) is recorded as −1.0 to −1.5 kg.
As to “liraglutide: approved GLP-1 analog (Victoza, Saxenda) (HAEGTFTSDVSSYLEGQAAKEFIAWLVRGRG; chains of the INN, looked up)”, in data set [1] (1.2 and 1.8 mg at 52 weeks), the “Participants achieving HbA1c <7.0%” value is listed as 43–51%. Moreover, the “Body weight change (weight loss)” value in data set [2] (1.2 and 1.8 mg at 52 weeks) is on record as −2.05 to −2.45 kg.
